Measurements from paper PMC7265341, “Quantifying CDK inhibitor selectivity in live cells” (Nature Communications, 2020).
Where two headings read alike, the source gives them in different places.

How the values were obtained:
CDK8/Cyclin C = CDK8/Cyclin C (Homo sapiens, UniProt P49336); test: NanoBRET live-cell target engagement, NanoLuc-CDK8/Cyclin C in HEK-293; format: binding
CDK13/Cyclin K = CDK13/Cyclin K (Homo sapiens, UniProt Q14004); test: NanoBRET live-cell target engagement, CDK13-NanoLuc/Cyclin K in HEK-293; format: binding; settings: CDK13/K, 10µM
CDK10/Cyclin L2 = CDK10/Cyclin L2 (Homo sapiens, UniProt Q15131); test: NanoBRET live-cell target engagement, CDK10-NanoLuc/Cyclin L2 in HEK-293; settings: 10µM
CDK9/Cyclin K = CDK9/Cyclin K (Homo sapiens, UniProt P50750); test: NanoBRET live-cell target engagement, NanoLuc-CDK9/Cyclin K in HEK-293; format: binding; settings: CDK9/K, 10µM
CDK4/Cyclin D1 = CDK4/Cyclin D1 (Homo sapiens, UniProt P11802); test: NanoBRET live-cell target engagement, NanoLuc-CDK4/Cyclin D1 in HEK-293; format: binding; settings: CDK4/D1, 10µM
CDK6/Cyclin D1 = CDK6/Cyclin D1 (Homo sapiens, UniProt Q00534); test: NanoBRET live-cell target engagement, NanoLuc-CDK6/Cyclin D1 in HEK-293; format: binding; settings: CDK6/D1, 10µM
CDK2/Cyclin E1 = CDK2/Cyclin E1 (Homo sapiens, UniProt P24941); test: NanoBRET live-cell target engagement, CDK2-NanoLuc/Cyclin E1 in HEK-293; format: binding; settings: CDK2/E1, 10µM
CDK11B/Cyclin L2 = CDK11B/Cyclin L2 (Homo sapiens, UniProt P21127); test: NanoBRET live-cell target engagement, CDK11B-NanoLuc/Cyclin L2 in HEK-293; format: binding; settings: CDK11b/L2, 10µM
CDK19/Cyclin C = CDK19/Cyclin C (Homo sapiens, UniProt Q9BWU1); test: NanoBRET live-cell target engagement, NanoLuc-CDK19/Cyclin C in HEK-293
CDK1/Cyclin E1 = CDK1/Cyclin E1 (Homo sapiens, UniProt P06493); test: NanoBRET live-cell target engagement, CDK1-NanoLuc/Cyclin E1 in HEK-293; format: binding; settings: CDK1/E1, 10µM
CDK11A/Cyclin L2 = molecular target: T1, CDK11A/Cyclin L2 (Homo sapiens, UniProt Q9UQ88); test: NanoBRET live-cell target engagement, CDK11A-NanoLuc/Cyclin L2 in HEK-293; format: binding; settings: CDK11a/L2, 10µM
T1 sequence (Q9UQ88 1-783): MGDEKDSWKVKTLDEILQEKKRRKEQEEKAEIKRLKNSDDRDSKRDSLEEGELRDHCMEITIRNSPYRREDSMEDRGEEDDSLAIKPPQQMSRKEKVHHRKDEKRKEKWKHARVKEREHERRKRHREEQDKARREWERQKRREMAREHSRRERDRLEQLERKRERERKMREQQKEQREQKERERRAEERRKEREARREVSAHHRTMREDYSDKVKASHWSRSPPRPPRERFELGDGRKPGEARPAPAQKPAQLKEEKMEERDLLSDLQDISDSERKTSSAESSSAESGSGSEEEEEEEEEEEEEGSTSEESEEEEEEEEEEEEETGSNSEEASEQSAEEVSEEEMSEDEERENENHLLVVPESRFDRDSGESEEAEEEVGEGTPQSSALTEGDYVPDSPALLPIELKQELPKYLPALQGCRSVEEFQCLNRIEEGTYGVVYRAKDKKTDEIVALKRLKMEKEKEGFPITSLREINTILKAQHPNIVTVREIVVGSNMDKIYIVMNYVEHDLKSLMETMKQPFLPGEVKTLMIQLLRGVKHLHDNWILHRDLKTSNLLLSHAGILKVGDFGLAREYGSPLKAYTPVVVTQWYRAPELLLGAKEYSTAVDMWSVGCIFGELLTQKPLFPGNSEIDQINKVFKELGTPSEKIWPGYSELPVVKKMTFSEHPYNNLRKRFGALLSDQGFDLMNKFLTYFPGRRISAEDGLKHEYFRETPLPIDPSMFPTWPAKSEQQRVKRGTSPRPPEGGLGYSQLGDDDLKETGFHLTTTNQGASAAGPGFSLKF

CDK5/CDK5R1 = CDK5/CDK5R1 (Homo sapiens, UniProt Q00535); test: NanoBRET live-cell target engagement, CDK5-NanoLuc/CDK5R1 in HEK-293; format: binding; settings: CDK5/CDK5R1, 10µM
CDK7 = CDK7 (Homo sapiens, UniProt P50613); test: NanoBRET live-cell target engagement, NanoLuc-CDK7 in HEK-293; format: binding; settings: CDK7
CDK20/Cyclin H = CDK20/Cyclin H (Homo sapiens, UniProt Q8IZL9); test: NanoBRET live-cell target engagement, NanoLuc-CDK20/Cyclin H in HEK-293; format: binding; settings: CDK20/H, 10µM
[1] = average of replicates, read-out: Inhibition at 10µM (%) Average
[2] = read-out: Inhibition at 10µM (%) Replicate 1
[3] = read-out: Inhibition at 10µM (%) Replicate 2

Sequence of CDK11B/Cyclin L2 (P21127 1-782 isoform P21127-2): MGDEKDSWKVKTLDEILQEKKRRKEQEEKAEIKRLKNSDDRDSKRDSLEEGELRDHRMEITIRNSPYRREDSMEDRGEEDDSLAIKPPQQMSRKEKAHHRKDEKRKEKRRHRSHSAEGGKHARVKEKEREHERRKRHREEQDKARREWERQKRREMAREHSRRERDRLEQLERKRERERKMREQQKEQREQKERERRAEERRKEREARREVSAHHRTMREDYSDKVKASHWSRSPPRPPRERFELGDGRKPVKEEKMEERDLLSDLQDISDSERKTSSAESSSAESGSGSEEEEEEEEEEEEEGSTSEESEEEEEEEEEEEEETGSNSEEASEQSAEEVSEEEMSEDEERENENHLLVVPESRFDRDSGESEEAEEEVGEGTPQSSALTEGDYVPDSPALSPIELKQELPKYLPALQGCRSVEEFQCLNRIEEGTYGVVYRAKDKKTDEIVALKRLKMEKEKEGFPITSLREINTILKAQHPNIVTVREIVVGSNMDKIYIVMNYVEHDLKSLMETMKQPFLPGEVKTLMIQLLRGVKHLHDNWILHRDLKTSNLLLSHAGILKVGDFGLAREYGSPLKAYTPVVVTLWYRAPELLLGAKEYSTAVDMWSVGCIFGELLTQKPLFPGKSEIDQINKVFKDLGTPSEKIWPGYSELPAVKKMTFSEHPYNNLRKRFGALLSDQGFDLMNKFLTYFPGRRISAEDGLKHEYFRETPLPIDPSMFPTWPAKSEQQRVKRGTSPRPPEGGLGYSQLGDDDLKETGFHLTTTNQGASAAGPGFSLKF
Sequence of CDK6/Cyclin D1 (Q00534 whole entry): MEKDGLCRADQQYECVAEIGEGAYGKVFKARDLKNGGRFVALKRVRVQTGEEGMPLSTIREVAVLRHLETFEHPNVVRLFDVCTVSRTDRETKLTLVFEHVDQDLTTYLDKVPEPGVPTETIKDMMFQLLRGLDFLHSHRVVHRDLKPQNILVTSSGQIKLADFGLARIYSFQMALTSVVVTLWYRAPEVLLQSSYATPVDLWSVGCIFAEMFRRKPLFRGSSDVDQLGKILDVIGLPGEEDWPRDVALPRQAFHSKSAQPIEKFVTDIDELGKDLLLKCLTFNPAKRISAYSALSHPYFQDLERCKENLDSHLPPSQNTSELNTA
Sequence of CDK6/Cyclin D1 (P24385 whole entry partner): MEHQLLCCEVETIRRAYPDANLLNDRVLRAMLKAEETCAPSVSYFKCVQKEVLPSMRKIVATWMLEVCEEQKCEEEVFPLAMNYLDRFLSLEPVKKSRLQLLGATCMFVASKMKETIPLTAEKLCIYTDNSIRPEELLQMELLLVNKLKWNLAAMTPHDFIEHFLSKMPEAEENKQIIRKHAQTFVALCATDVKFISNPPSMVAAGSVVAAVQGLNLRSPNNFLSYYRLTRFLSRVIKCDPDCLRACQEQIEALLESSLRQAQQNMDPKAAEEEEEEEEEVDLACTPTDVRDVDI
Sequence of CDK5/CDK5R1 (Q00535 whole entry): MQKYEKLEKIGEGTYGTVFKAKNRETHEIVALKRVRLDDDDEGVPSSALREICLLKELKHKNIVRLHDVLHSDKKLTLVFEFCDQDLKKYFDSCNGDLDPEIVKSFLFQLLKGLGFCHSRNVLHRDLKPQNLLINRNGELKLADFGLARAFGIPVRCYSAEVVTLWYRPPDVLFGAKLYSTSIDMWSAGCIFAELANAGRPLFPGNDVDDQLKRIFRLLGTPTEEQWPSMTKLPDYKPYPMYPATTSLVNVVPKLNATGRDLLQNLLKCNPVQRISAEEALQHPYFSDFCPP
Sequence of CDK5/CDK5R1 (Q15078 whole entry partner): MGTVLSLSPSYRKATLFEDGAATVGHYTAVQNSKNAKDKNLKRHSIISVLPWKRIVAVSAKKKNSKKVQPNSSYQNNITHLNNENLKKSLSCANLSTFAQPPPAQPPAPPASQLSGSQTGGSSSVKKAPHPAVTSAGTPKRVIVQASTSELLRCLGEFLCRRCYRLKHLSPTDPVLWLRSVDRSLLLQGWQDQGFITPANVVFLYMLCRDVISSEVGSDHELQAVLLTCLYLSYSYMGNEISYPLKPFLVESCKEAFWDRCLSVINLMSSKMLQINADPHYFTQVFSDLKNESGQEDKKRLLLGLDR
Sequence of CDK13/Cyclin K (O75909 whole entry): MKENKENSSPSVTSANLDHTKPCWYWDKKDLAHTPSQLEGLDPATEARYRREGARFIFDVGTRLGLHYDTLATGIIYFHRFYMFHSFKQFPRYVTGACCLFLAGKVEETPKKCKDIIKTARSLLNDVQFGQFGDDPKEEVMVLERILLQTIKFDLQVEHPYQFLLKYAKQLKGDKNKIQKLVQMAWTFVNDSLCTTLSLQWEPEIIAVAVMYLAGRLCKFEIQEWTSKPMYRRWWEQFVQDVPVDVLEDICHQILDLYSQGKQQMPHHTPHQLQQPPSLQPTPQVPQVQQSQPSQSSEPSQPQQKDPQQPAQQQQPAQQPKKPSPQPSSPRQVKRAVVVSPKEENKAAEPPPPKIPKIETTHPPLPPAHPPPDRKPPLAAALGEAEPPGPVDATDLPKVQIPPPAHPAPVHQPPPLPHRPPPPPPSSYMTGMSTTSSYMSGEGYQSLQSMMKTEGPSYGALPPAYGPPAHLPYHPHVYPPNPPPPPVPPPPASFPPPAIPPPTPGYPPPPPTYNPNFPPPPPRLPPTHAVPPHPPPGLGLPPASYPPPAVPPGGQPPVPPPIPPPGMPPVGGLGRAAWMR
Sequence of CDK13/Cyclin K (Q14004 other isoform, or with tags, fused parts or gaps): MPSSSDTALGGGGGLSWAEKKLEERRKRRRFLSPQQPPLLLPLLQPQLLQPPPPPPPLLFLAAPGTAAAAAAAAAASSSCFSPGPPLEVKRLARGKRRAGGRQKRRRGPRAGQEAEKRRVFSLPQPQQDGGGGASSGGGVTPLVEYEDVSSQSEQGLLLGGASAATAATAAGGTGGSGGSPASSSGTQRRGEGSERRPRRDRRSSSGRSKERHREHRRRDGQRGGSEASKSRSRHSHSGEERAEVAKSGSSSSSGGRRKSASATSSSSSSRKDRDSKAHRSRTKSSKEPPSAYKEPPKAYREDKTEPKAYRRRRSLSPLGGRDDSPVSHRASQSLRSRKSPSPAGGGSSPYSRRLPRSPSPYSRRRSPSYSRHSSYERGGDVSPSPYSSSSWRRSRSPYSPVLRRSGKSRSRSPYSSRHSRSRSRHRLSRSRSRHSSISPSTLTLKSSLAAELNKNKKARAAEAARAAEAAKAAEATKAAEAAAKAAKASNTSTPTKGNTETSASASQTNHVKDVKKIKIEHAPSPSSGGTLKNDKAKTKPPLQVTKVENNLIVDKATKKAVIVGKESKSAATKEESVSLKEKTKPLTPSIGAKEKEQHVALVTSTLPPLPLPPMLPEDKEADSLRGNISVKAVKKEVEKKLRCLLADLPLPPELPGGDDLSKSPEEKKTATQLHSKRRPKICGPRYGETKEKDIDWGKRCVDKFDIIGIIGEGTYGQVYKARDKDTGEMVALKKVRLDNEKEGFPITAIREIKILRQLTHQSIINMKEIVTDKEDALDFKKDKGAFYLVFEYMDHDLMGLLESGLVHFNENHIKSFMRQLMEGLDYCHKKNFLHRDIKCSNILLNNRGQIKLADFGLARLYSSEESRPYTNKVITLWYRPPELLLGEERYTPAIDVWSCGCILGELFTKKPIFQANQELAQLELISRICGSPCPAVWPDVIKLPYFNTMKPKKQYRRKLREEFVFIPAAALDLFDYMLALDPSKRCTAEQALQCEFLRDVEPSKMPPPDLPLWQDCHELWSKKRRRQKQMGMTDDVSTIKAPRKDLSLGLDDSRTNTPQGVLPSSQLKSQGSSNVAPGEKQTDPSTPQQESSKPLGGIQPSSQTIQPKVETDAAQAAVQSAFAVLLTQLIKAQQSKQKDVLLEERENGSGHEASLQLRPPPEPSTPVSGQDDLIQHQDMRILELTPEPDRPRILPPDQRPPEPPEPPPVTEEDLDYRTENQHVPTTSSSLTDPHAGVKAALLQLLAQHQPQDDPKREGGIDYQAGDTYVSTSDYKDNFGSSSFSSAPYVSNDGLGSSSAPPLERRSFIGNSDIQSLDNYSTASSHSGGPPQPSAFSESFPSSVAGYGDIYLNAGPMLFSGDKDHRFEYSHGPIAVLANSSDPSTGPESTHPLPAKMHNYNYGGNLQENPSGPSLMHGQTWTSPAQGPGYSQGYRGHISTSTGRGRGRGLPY
Sequence of CDK10/Cyclin L2 (Q15131 whole entry): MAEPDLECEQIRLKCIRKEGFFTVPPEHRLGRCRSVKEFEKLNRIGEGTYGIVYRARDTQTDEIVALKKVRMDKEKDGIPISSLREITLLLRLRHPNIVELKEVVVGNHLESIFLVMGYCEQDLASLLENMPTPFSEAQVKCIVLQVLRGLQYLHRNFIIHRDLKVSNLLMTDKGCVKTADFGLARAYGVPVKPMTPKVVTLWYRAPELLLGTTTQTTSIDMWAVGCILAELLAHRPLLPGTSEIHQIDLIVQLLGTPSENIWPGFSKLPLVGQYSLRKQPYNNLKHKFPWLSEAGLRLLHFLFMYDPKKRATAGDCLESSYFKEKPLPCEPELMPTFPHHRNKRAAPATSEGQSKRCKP
Sequence of CDK4/Cyclin D1 (P11802 whole entry): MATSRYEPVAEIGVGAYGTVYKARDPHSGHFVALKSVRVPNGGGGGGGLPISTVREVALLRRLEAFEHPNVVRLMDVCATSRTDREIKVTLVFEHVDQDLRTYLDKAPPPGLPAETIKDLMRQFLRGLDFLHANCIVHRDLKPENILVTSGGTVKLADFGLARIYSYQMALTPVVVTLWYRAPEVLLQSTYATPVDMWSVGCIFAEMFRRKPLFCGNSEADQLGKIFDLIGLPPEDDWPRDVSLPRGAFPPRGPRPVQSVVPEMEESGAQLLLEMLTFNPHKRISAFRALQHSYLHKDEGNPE
Sequence of CDK4/Cyclin D1 (P24385 whole entry partner): as the sequence (P24385 whole entry partner) above

CCN1CCN(Cc2ccc(NC(=O)Nc3ccc(Oc4cc(NC)ncn4)cc3)cc2C(F)(F)F)CC1 [AST-487]
inhibition at 10 µM (CDK8/Cyclin C; CDK8/C, average of replicates, read-out: Inhibition at 10µM (%) Average): 95.7% | inhibition at 10 µM (CDK8/Cyclin C; CDK8/C, read-out: Inhibition at 10µM (%) Replicate 1): 95.7% | inhibition at 10 µM (CDK8/Cyclin C; CDK8/C, read-out: Inhibition at 10µM (%) Replicate 2): 95.7% | IC50 (CDK8/Cyclin C; CDK8/C, n=3 average ± SEM, n=2 average to 2 significant figures, read-out: IC50 (nM) Average*): 24 nM | IC50 (CDK8/Cyclin C; CDK8/C, read-out: IC50 (nM) Replicate 1): 23 nM | IC50 (CDK8/Cyclin C; CDK8/C, read-out: IC50 (nM) Replicate 2): 25 nM | IC50 (CDK8/Cyclin C; [Probe 3] 0.5 µM, n=1, read-out: IC50): 48 nM | inhibition at 10 µM (CDK13/Cyclin K; [1]): 47.2% | inhibition at 10 µM (CDK13/Cyclin K; [2]): 28% | inhibition at 10 µM (CDK13/Cyclin K; [3]): 66.3% | inhibition at 10 µM (CDK10/Cyclin L2; read-out: Inhibition at 10µM (%) Average, CDK10/L2, average of replicates): 84.1% | inhibition at 10 µM (CDK10/Cyclin L2; read-out: Inhibition at 10µM (%) Replicate 1, CDK10/L2): 74.4% | inhibition at 10 µM (CDK10/Cyclin L2; read-out: Inhibition at 10µM (%) Replicate 2, CDK10/L2): 93.8% | inhibition at 10 µM (CDK9/Cyclin K; [1]): 83.3% | inhibition at 10 µM (CDK9/Cyclin K; [2]): 72.3% | inhibition at 10 µM (CDK9/Cyclin K; [3]): 94.4% | inhibition at 10 µM (CDK4/Cyclin D1; [1]): 75.5% | inhibition at 10 µM (CDK4/Cyclin D1; [2]): 55.7% | inhibition at 10 µM (CDK4/Cyclin D1; [3]): 95.3% | inhibition at 10 µM (CDK6/Cyclin D1; [1]): 50.9% | inhibition at 10 µM (CDK6/Cyclin D1; [2]): 15.7% | inhibition at 10 µM (CDK6/Cyclin D1; [3]): 86.2% | inhibition at 10 µM (CDK2/Cyclin E1; [1]): 2.9% | inhibition at 10 µM (CDK2/Cyclin E1; [2]): -18.7% | inhibition at 10 µM (CDK2/Cyclin E1; [3]): 24.5% | inhibition at 10 µM (CDK11B/Cyclin L2; [1]): 10.3% | inhibition at 10 µM (CDK11B/Cyclin L2; [2]): 10.9% | inhibition at 10 µM (CDK11B/Cyclin L2; [3]): 9.7% | IC50 (CDK19/Cyclin C; IC50 (nM) Average*, CDK19/Y, n=3 average ± SEM, n=2 average to 2 significant figures): 25 nM | IC50 (CDK19/Cyclin C; IC50 (nM) Replicate 1, CDK19/C): 28 nM | IC50 (CDK19/Cyclin C; IC50 (nM) Replicate 2, CDK19/C): 22 nM | IC50 (CDK19/Cyclin C; IC50, [Probe 1] 0.5 µM (plot: [Probe 3]), n=1): 9.4 nM | IC50 (CDK19/Cyclin C; IC50, [Probe 1] 1 µM (plot: [Probe 3]), n=1): 10 nM | inhibition at 10 µM (CDK19/Cyclin C; read-out: Inhibition at 10µM (%) Average, CDK19/C, average of replicates): 98.4% | inhibition at 10 µM (CDK19/Cyclin C; read-out: Inhibition at 10µM (%) Replicate 1, CDK19/C): 94.2% | inhibition at 10 µM (CDK19/Cyclin C; read-out: Inhibition at 10µM (%) Replicate 2, CDK19/C): 103% | inhibition at 10 µM (CDK1/Cyclin E1; [1]): 75.2% | inhibition at 10 µM (CDK1/Cyclin E1; [2]): 59.8% | inhibition at 10 µM (CDK1/Cyclin E1; [3]): 90.6% | inhibition at 10 µM (CDK11A/Cyclin L2; [1]): 49% | inhibition at 10 µM (CDK11A/Cyclin L2; [2]): 22.5% | inhibition at 10 µM (CDK11A/Cyclin L2; [3]): 75.4% | inhibition at 10 µM (CDK5/CDK5R1; [1]): 38.1% | inhibition at 10 µM (CDK5/CDK5R1; [2]): 12.7% | inhibition at 10 µM (CDK5/CDK5R1; [3]): 63.5% | inhibition at 10 µM (CDK7; [1]): 70.4% | inhibition at 10 µM (CDK7; [2]): 74.2% | inhibition at 10 µM (CDK7; [3]): 66.6% | IC50 (CDK7; n=3 average ± SEM, n=2 average to 2 significant figures, read-out: IC50 (nM) Average*): 760 nM | IC50 (CDK7; read-out: IC50 (nM) Replicate 1): 660 nM | IC50 (CDK7; read-out: IC50 (nM) Replicate 2): 860 nM | inhibition at 10 µM (CDK20/Cyclin H; [2]): 38.4% | inhibition at 10 µM (CDK20/Cyclin H; [3]): 80.6%
